# Reference: patent US9969746B2, “Opioid compounds and their uses” (THE UNIVERSITY OF BATH, priority 2013, dated 2018)
# Assays:
# [1] = target: T1, NOP (Homo sapiens, UniProt P41146); test: Binding affinity to human NOP receptor transfected into CHO cells ([3H]N/OFQ)
# T1 construct: expressed in transfected cells; host or cells: CHO cells (membranes)
# [2] = target: T2, MOP (Homo sapiens, UniProt P35372); test: biochemical; type: binding; conditions: [3H]DAMGO, membranes of CHO cells with human receptor
# T2 construct: expressed in transfected cells; host or cells: CHO cells (membranes)
# T2 sequence (P35372 whole entry): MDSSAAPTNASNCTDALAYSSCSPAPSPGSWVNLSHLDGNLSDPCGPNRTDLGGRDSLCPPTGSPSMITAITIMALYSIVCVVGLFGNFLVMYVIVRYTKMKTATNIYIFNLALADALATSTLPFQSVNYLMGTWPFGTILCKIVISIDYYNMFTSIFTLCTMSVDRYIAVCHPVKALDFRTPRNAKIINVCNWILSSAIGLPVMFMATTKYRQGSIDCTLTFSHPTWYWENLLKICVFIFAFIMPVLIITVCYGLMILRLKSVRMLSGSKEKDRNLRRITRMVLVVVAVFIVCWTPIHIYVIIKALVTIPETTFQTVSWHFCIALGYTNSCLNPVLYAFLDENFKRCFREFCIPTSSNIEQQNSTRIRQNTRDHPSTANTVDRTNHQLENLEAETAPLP
# [3] = target: T3, KOP (Homo sapiens, UniProt P41145); test: biochemical; type: binding; conditions: [3H]U69593, membranes of CHO cells with human receptor
# T3 construct: expressed in transfected cells; host or cells: CHO cells (membranes)
# T3 sequence (P41145 whole entry): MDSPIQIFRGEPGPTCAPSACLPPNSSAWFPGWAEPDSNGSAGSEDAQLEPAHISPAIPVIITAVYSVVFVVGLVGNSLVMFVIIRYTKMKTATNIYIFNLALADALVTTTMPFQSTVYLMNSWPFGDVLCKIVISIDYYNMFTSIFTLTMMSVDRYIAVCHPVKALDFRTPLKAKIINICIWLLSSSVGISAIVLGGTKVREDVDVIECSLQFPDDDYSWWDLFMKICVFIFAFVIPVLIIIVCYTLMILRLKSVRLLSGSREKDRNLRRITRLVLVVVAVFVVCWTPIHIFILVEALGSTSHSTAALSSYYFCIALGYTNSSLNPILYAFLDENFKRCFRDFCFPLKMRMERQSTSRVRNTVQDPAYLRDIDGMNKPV
# [4] = target: T1, NOP; test: [35S]GTPγS binding, NOP; type: biochemical; conditions: 1 h; read-out: % stim NOP
# Method: (§1) [^35S]GTPγS binding was conducted basically as described by Traynor and Nahorski (Traynor et al., 1995). Cells were scraped from tissue culture dishes into 20 mM Hepes, 1 mM EDTA, then centrifuged at 500×g for 10 min. Cells were resuspended in this buffer and homogenized using a Polytron Homogenizer. The homogenate was centrifuged at 27,000×g for 15 min, and the pellet re suspended in Buffer A, containing: 20 mM Hepes, 10 mM MgCl2, 100 mM NaCl, pH 7.4. The suspension was re centrifuged at 27,000×g and suspended once more in Buffer A. For the binding assay, membranes (8-15 μg protein) were incubated with [^35S]GTPγS (50 pM), GDP (10 μM), and the appropriate compound, in a total volume of 1.0 ml, for 60 min at 25′C. Samples were filtered over glass fiber filters and counted as described for the binding assays. Statistical analysis was conducted using the program Prism®.
# [5] = target: T4, KOPr (Homo sapiens, UniProt P41145); test: [35S]GTPγS binding, KOPr; type: biochemical
# T4 construct: expressed in transfected cells
# T4 sequence (P41145 whole entry): as above
# Method: as §1
# [6] = target: T2, MOP; test: [35S]GTPγS binding, MOP; type: biochemical; conditions: 1 h; read-out: % stim MOP
# Method: as §1
# [7] = tested on: carrageenan-induced thermal hyperalgesia; test: Carrageenan-induced thermal hyperalgesia (paw withdrawal latency); type: in vivo
# Method: Compound 11 was tested for its effect on carrageenan-induced thermal hyperalgesia measured by paw withdrawal latency (FIG. 1a) and anti-hyperalgesic effect (FIG. 1b).
# [8] = tested on: rhesus monkeys; test: Antinociception against acute noxious stimulus (50° C. water); type: in vivo
# Description: (§2) These findings illustrate the safe and favorable profile of 11.
# [9] = tested on: rhesus monkeys; test: Physiological functions of monkeys (respiration, heart rate, blood pressure); type: in vivo; conditions: 0.01 mg/kg s.c.
# Description: as §2
# [10] = tested on: rhesus monkeys; test: Operant responding assay (self-administration); type: in vivo
# Description: as §2
# [11] = tested on: rhesus monkeys; test: Scratching responses and sedation after intrathecal administration; type: in vivo; conditions: intrathecal 3 μg
# Description: as §2
# T1 sequence (P41146 whole entry): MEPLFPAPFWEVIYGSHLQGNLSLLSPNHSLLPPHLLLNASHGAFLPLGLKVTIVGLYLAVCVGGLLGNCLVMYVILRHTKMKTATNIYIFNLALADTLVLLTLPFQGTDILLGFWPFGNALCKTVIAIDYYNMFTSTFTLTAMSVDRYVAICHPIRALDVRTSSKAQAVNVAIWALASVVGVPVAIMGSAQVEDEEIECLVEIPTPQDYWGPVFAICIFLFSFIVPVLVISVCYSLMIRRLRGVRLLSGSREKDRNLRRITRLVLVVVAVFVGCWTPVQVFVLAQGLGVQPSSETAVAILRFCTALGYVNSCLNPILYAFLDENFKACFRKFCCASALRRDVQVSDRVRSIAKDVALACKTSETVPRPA
smiles,measurement,setting,value
"COc1cccc(CCC(=O)O[C@@]23CCC(=O)[C@@H]4Oc5c(O)ccc6c5[C@@]42CCN(CC2CC2)C3C6)c1 [Compound 13, 14β-(3′-methoxyphenylpropanoyl)-17-cyclopropylmethyl-78-dihydronoroxymorphinone]",Ki,[1],154 ± 11.5 nM
same,Ki,[2],1.14 ± 0.18 nM
same,Ki,[3],1.24 ± 0.15 nM
same,Emax,[4],46%
same,stimulation of the KOPr,[5],no stimulation
"O=C(Cc1ccccc1F)O[C@@]12CCC(=O)[C@@H]3Oc4c(O)ccc5c4[C@@]31CCN(CC1CC1)C2C5 [Compound 8, 14β-(2′-fluorophenylacetyl)-17-cyclopropylmethyl-7,8-dihydronoroxymorphinone]",Ki,[1],69.7 ± 2.4 nM
same,Ki,[2],2.59 ± 1.1 nM
same,Ki,[3],4.55 ± 0.7 nM
same,Emax,[6],28%
same,Emax,[4],15%
"O=C(Cc1ccc(Cl)cc1)O[C@@]12CCC(=O)[C@@H]3Oc4c(O)ccc5c4[C@@]31CCN(CC1CC1)C2C5 [Compound 9, 14β-(4′-chlorophenylacetyl)-17-cyclopropylmethyl-7,8-dihydronoroxymorphinone]",Ki,[1],51.3 ± 14 nM
same,Ki,[2],1.78 ± 0.03 nM
same,Ki,[3],3.95 ± 0.59 nM
same,Emax,[6],8.2%
same,Emax,[4],19%
"O=C(Cc1ccc2c(c1)OCO2)O[C@@]12CCC(=O)[C@@H]3Oc4c(O)ccc5c4[C@@]31CCN(CC1CC1)C2C5 [Compound 6, 14β-(3′,4′-dioxymethylenephenylacetyl)-7-cyclopropylmethyl-7,8-dihydronoroxymorphinone]",Ki,[1],94.3 ± 28 nM
same,Ki,[2],0.99 ± 0.35 nM
same,Ki,[3],1.2 ± 0.42 nM
same,Emax,[6],12%
same,Emax,[4],44%
Cc1cccc(CC(=O)O[C@@]23CCC(=O)[C@@H]4Oc5c(O)ccc6c5[C@@]42CCN(CC2CC2)C3C6)c1 [Compound 4],Ki,[1],49.9 ± 3.5 nM
same,Ki,[2],1.91 ± 0.51 nM
same,Ki,[3],2.8 ± 0.91 nM
same,Emax,[6],40%
same,Emax,[4],59%
"COc1ccc(CCC(=O)O[C@@]23CCC(=O)[C@@H]4Oc5c(O)ccc6c5[C@@]42CCN(CC2CC2)C3C6)cc1 [Compound 12, 14β-(4′-methoxyphenylpropanoyl)-17-cyclopropylmethyl-7,8-dihydronoroxymorphinone]",Ki,[1],766 ± 177 nM
same,Ki,[2],0.91 ± 0.12 nM
same,Ki,[3],1.96 ± 0.04 nM
same,Emax,[4],52%
same,stimulation of the KOPr,[5],no stimulation
"COc1ccccc1CCC(=O)O[C@@]12CCC(=O)[C@@H]3Oc4c(O)ccc5c4[C@@]31CCN(CC1CC1)C2C5 [Compound 14, 14β-(2′-methoxyphenylpropanoyl)-17-cyclopropylmethyl-7,8-dihydronoroxymorphinone]",Ki,[1],120 ± 20.5 nM
same,Ki,[2],1.67 ± 0.42 nM
same,Ki,[3],1.24 ± 0.11 nM
same,Emax,[4],56%
same,stimulation of the KOPr,[5],no stimulation
"Cc1ccccc1CC(=O)O[C@@]12CCC(=O)[C@@H]3Oc4c(O)ccc5c4[C@@]31CCN(CC1CC1)C2C5 [Compound 3, 14β-(2′-methylphenylacetyl)-17-cyclopropylmethyl-7,8-dihydronoroxymorphinone]",Ki,[1],44.1 ± 3.1 nM
same,Ki,[2],3.59 ± 0.86 nM
same,Ki,[3],1.69 ± 1.2 nM
same,Emax,[6],42%
same,Emax,[4],21%
"Cc1ccc(CC(=O)O[C@@]23CCC(=O)[C@@H]4Oc5c(O)ccc6c5[C@@]42CCN(CC2CC2)C3C6)cc1 [Compound 2, 14β-(4′-methylphenylacetyl)-17-cyclopropylmethyl-7,8-dihydronoroxymorphinone]",Ki,[1],36.3 ± 4.2 nM
same,Ki,[2],1.87 ± 0.09 nM
same,Ki,[3],1.56 ± 0.28 nM
same,Emax,[6],35%
same,Emax,[4],22%
"COc1cccc(CC(=O)O[C@@]23CCC(=O)[C@@H]4Oc5c(O)ccc6c5[C@@]42CCN(CC2CC2)C3C6)c1 [Compound 5, 14β-(3′-methoxyphenylacetyl)-17-cyclopropylmethyl-7,8-dihydronoroxymorphinone]",Ki,[1],50.1 ± 2.7 nM
same,Ki,[2],1.1 ± 0.08 nM
same,Ki,[3],1.44 ± 0.33 nM
same,Emax,[6],11%
same,Emax,[4],36%
"O=C(Cc1ccccc1)O[C@@]12CCC(=O)[C@@H]3Oc4c(O)ccc5c4[C@@]31CCN(CC1CC1)C2C5 [Compound 1, 14β-phenylacetyl-17-cyclopropylmethyl-7,8-dihydronoroxmorphinone]",Ki,[1],127 ± 17 nM
same,Ki,[2],0.86 ± 0.18 nM
same,Ki,[3],1.14 ± 0.46 nM
same,Emax,[6],32%
same,Emax,[4],28%
"COc1ccccc1CC(=O)O[C@@]12CCC(=O)[C@@H]3Oc4c(O)ccc5c4[C@@]31CCN(CC1CC1)C2C5 [Compound 7, 14β-(2′-methoxyphenylacetyl)-17-cyclopropylmethyl-7,8-dihydronoroxmorphinone]",Ki,[1],62.3 ± 4.9 nM
same,Ki,[2],3.77 ± 0.9 nM
same,Ki,[3],3.52 ± 0.9 nM
same,Emax,[6],37%
same,Emax,[4],41%
"O=C(Cc1ccccc1Cl)O[C@@]12CCC(=O)[C@@H]3Oc4c(O)ccc5c4[C@@]31CCN(CC1CC1)C2C5 [Compound 10, 14β-(2′-chlorophenylacetyl)-17-cyclopropylmethyl-7,8-dihydronoroxymorphinone]",Ki,[1],32.6 ± 2.3 nM
same,Ki,[2],4.66 ± 1.8 nM
same,Ki,[3],1.34 ± 0.5 nM
same,Emax,[6],39%
same,Emax,[4],50%
"O=C(CCc1ccccc1)O[C@@]12CCC(=O)[C@@H]3Oc4c(O)ccc5c4[C@@]31CCN(CC1CC1)C2C5 [Compound 11, 14β-Phenylpropanoyl-17-cyclopropylmethyl-7,8-dihydronoroxymorphinone]",Ki,[1],14.8 ± 0.94 nM
same,Ki,[2],0.86 ± 0.23 nM
same,Ki,[3],10.5 ± 0.17 nM
same,Emax,[6],18%
same,Emax,[4],34%
same,stimulation of the KOPr,[5],no stimulation
same,reversal of 11-induced reversal of thermal hyperalgesia by pretreatment with NOP receptor antagonist J113397,[7]; J113397 pretreatment,partially reverse
same,"effect on carrageenan-induced thermal hyperalgesia (paw withdrawal latency, anti-hyperalgesic effect)",[7]; intrathecal,efficacious and long acting
same,reversal of 11-induced reversal of thermal hyperalgesia by pretreatment with MOP receptor antagonist naltrexone,[7]; naltrexone pretreatment,partially reverse
same,antinociceptive effect,"[8]; 0.01 mg/kg s.c., rhesus monkeys",full antinociceptive effects
same,antinociceptive effect,"[8]; intrathecal 3 μg, monkeys",full antinociceptive effects
same,duration of full antinociceptive effects,"[8]; intrathecal 3 μg, monkeys",24 h
same,duration of antinociception,"[8]; s.c. 0.001-0.01 mg/kg, rhesus monkeys",~24 h
same,antinociception against acute noxious stimulus (50° C. water),"[8]; s.c. 0.001-0.01 mg/kg, rhesus monkeys, pilot experiments",dose-dependently produced long lasting antinociception
same,bradycardia and hypotension,[9],no bradycardia and hypotension
same,respiratory depression,[9],no respiratory depression
same,self-administration (abuse liability),[10],did not self-administer
same,scratching responses,[11],without eliciting scratching responses
same,signs of sedation,[11]; during test period,did not show any signs of sedation
"Cc1ccc(CCC(=O)O[C@@]23CCC(=O)[C@@H]4Oc5c(O)ccc6c5[C@@]42CCN(CC2CC2)C3C6)cc1 [Compound 18, 14β-(4′-methylphenylpropanoyl)-17-cyclopropylmethyl-7,8-dihydronoroxymorphinone]",Ki,[1],35.8 ± 1.6 nM
same,Ki,[2],0.78 ± 0.22 nM
same,Ki,[3],1.06 ± 0.4 nM
same,Emax,[6],25%
same,Emax,[4],63%
"Cc1ccccc1CCC(=O)O[C@@]12CCC(=O)[C@@H]3Oc4c(O)ccc5c4[C@@]31CCN(CC1CC1)C2C5 [Compound 19, 14β-(2′-methylphenylpropanoyl)-17-cyclopropylmethyl-7,8-dihydronoroxymorphinone]",Ki,[1],12.1 ± 2.7 nM
same,Ki,[2],0.56 ± 0.11 nM
same,Ki,[3],0.64 ± 0.1 nM
same,Emax,[6],48%
same,Emax,[4],33%
"Cc1cccc(CCC(=O)O[C@@]23CCC(=O)[C@@H]4Oc5c(O)ccc6c5[C@@]42CCN(CC2CC2)C3C6)c1 [Compound 15, 14β-(3′-methylphenylpropanoyl)-17-cyclopropylmethyl-7,8-dihydronoroxymorphinone]",Ki,[1],37.7 ± 2.6 nM
same,Ki,[2],0.91 ± 0.1 nM
same,Ki,[3],1.56 ± 0.2 nM
same,Emax,[6],23%
"O=C(CCc1ccc(Cl)cc1)O[C@@]12CCC(=O)[C@@H]3Oc4c(O)ccc5c4[C@@]31CCN(CC1CC1)C2C5 [Compound 16, 14β-(4′-chlorophenylpropanoyl)-17-cyclopropylmethyl-7,8-dihydronoroxymorphinone]",Ki,[1],45.2 ± 17.5 nM
same,Ki,[2],0.54 ± 0.11 nM
same,Ki,[3],1.34 ± 0.12 nM
same,Emax,[6],21%
same,Emax,[4],41%
same,stimulation of the KOPr,[5],no stimulation
"O=C(CCc1cccc(Cl)c1)O[C@@]12CCC(=O)[C@@H]3Oc4c(O)ccc5c4[C@@]31CCN(CC1CC1)C2C5 [Compound 17, 14β-(3′-chlorophenylpropanoyl)-17-cyclopropylmethyl-7,8-dihydronoroxymorphinone]",Ki,[1],27 ± 4.9 nM
same,Ki,[2],0.39 ± 0.07 nM
same,Ki,[3],0.74 ± 0.05 nM
same,Emax,[6],26%
same,Emax,[4],22%
same,stimulation of the KOPr,[5],no stimulation
